Laboratory results reported in patent publication US20220133699A1, “Antibacterial Compositions” (Singapore Eye Research Institute, priority 2019, published 2022).
Positions of bridges follow the written chain, without caps; N, C: chain ends. Residues, ends and D or L forms follow the SMILES beside them. Chains are numbered I, II in the order given.

What was measured:
ACBA 1010 [1] = test: microbe, parasite or virus in culture; assay type: cell-based, Acinetobacter baumannii; conditions: for Synergy MIC / MIC: ACBA 1010; for MIC: Acinetobacter baumannii, agent alone, read-out: Monotherapy MIC
Protocol: (§1) The ability of B2088 [RGRKVVRR)2KK] to kill strain ACBA 1010 was tested by itself (as a monotherapy), as well as in combination with one of meropenem, imipenem, or doripenem (as a combination therapy) using minimum inhibitory concentration, or MIC, as a measure of effectiveness. Synergism MIC indicates the MIC of each of B2088 or the carbapenem antibiotic when used as an antibacterial composition.

KLPN 27025 [2] = test: MIC of antibiotics alone against KLPN 27025 (Table 1); assay type: cell-based, Klebsiella pneumonia; conditions: MIC dil in Full strength MHB, antibiotic alone
Protocol: (§2) KLPN 8852, 27025 and 24076 are carbapenemase resistant (“CRE”) strains of the common bacteria, KLPN, Klebsiella pneumonia. […] The ability of amikacin as well as three carbapenem antibiotics (meropenem, imipenem, and doripenem) to kill each of these strains was tested using minimum inhibitory concentration, or MIC, as a measure of effectiveness.

KLPN 27025 [3] = test: microbe, parasite or virus in culture; assay type: cell-based, Klebsiella pneumonia; conditions: for Synergy MIC / MIC: KLPN 27025; for MIC: Klebsiella pneumoniae, agent alone, read-out: Monotherapy MIC
Protocol: as §1, with “each of CRE strains KLPN 8852, 27025 and 24076” for “strain ACBA 1010”

KLPN 24076 [4] = test: microbe, parasite or virus in culture; assay type: cell-based, Klebsiella pneumonia; conditions: for Synergy MIC / MIC: KLPN 24076; for MIC: Klebsiella pneumoniae, agent alone, read-out: Monotherapy MIC
Protocol: as §1, with “each of CRE strains KLPN 8852, 27025 and 24076” for “strain ACBA 1010”

KLPN 8852 [5] = test: microbe, parasite or virus in culture; assay type: cell-based, Klebsiella pneumonia; conditions: for Synergy MIC / MIC: KLPN 8852; for MIC: Klebsiella pneumoniae, agent alone, read-out: Monotherapy MIC
Protocol: as §1, with “each of CRE strains KLPN 8852, 27025 and 24076” for “strain ACBA 1010”

KLPN 24076 [6] = test: MIC of antibiotics alone against KLPN 24076 (Table 1); assay type: cell-based, Klebsiella pneumonia; conditions: MIC dil in Full strength MHB, antibiotic alone
Protocol: as §2

ACBA 1010 [7] = test: MIC of antibiotics alone against ACBA 1010 (Table 1); assay type: cell-based, Acinetobacter baumannii; conditions: MIC dil in Full strength MHB, antibiotic alone
KLPN 8852 [8] = test: MIC of antibiotics alone against KLPN 8852 (Table 1); assay type: cell-based, Klebsiella pneumonia; conditions: MIC dil in Full strength MHB, antibiotic alone
Protocol: as §2

[9] = MIC of each agent in combination B2088 + Imipenem
[10] = MIC of each agent in combination B2088 + Doripenem
[11] = MIC of each agent in combination B2088 + Meropenem

Row | Compound | Synergy MIC (ACBA 1010 [1]; [9]) | MIC (ACBA 1010 [1]) | MIC (KLPN 27025 [2]) | Synergy MIC (KLPN 27025 [3]; [9]) | MIC (KLPN 27025 [3]) | Synergy MIC (KLPN 24076 [4]; [9]) | MIC (KLPN 24076 [4]) | Synergy MIC (KLPN 8852 [5]; [9]) | MIC (KLPN 8852 [5]) | MIC (KLPN 24076 [6]) | MIC (ACBA 1010 [7]) | MIC (KLPN 8852 [8]) | Synergy MIC (ACBA 1010 [1]; [10]) | Synergy MIC (KLPN 27025 [3]; [10]) | Synergy MIC (KLPN 24076 [4]; [10]) | Synergy MIC (KLPN 8852 [5]; [10]) | Synergy MIC (ACBA 1010 [1]; [11]) | Synergy MIC (KLPN 27025 [3]; [11]) | Synergy MIC (KLPN 24076 [4]; [11]) | Synergy MIC (KLPN 8852 [5]; [11]) | also measured
1 | C[C@@H](O)[C@H]1C(=O)N2C(C(=O)O)=C(SCCN=CN)C[C@H]12 [Imipenem, imipenem] | 1 µg/mL | 12.5 µg/mL | > 50 µg/mL | 1 µg/mL | > 50 µg/mL | 1 µg/mL | > 50 µg/mL | 0.5 µg/mL | > 50 µg/mL | > 50 µg/mL | 25 µg/mL | > 50 µg/mL |  |  |  |  |  |  |  |  | 
2 | C[C@@H](O)[C@H]1C(=O)N2C(C(=O)O)=C(S[C@@H]3CN[C@H](CNS(N)(=O)=O)C3)[C@H](C)[C@H]12 [Doripenem, doripenem] |  | < 0.0975 µg/mL | 25 µg/mL |  | 25 µg/mL |  | 25 µg/mL |  | > 50 µg/mL | 25 µg/mL | 0.195 µg/mL | > 50 µg/mL | 0.007813 µg/mL | 0.007813 µg/mL | 1 µg/mL | 0.125 µg/mL |  |  |  |  | 
3 | C[C@@H](O)[C@H]1C(=O)N2C(C(=O)O)=C(S[C@@H]3CN[C@H](C(=O)N(C)C)C3)[C@H](C)[C@H]12 [Meropenem, meropenem] |  | 1.56 µg/mL | > 50 µg/mL |  | 50 µg/mL |  | > 50 µg/mL |  | > 50 µg/mL | > 50 µg/mL | 1.56 µg/mL | > 50 µg/mL |  |  |  |  | 0.5 µg/mL | 0.007813 µg/mL | 1 µg/mL | 1 µg/mL | 
4 | CC(C)[C@H](NC(=O)[C@H](CCCCN)NC(=O)[C@H](CCCNC(=N)N)NC(=O)CNC(=O)[C@@H](N)CCCNC(=N)N)C(=O)N[C@H](C(=O)N[C@@H](CCCNC(=N)N)C(=O)N[C@@H](CCCNC(=N)N)C(=O)NCCCC[C@H](NC(=O)[C@H](CCCNC(=N)N)NC(=O)[C@H](CCCNC(=N)N)NC(=O)[C@@H](NC(=O)[C@@H](NC(=O)[C@H](CCCCN)NC(=O)[C@H](CCCNC(=N)N)NC(=O)CNC(=O)[C@@H](N)CCCNC(=N)N)C(C)C)C(C)C)C(=O)N[C@@H](CCCCN)C(=O)O)C(C)C [B2088, [RGRKVVRR)2KK]] (I: H-RGRKVVRRKK-OH / II: H-RGRKVVRR; amide I:9-II:C; N-terminus and C-terminus assumed) | 1 µg/mL |  |  | 1 µg/mL |  | 1 µg/mL |  | 0.5 µg/mL |  |  |  |  | 0.0625 µg/mL | 0.01562 µg/mL | 1 µg/mL | 0.25 µg/mL | 1 µg/mL | 0.0625 µg/mL | 1 µg/mL | 1 µg/mL | Monotherapy MIC (ACBA 1010 [1]): 6.25 µg/mL; Monotherapy MIC (KLPN 27025 [3]): 6.25 µg/mL; Monotherapy MIC (KLPN 24076 [4]): 6.25 µg/mL; Monotherapy MIC (KLPN 8852 [5]): 25 µg/mL
5 | NCC[C@H](O)C(=O)N[C@@H]1C[C@H](N)[C@@H](O[C@H]2O[C@H](CN)[C@@H](O)[C@H](O)[C@H]2O)[C@H](O)[C@H]1O[C@H]1O[C@H](CO)[C@@H](O)[C@H](N)[C@H]1O [Amikacin, amikacin] |  |  | 0.78 µg/mL |  |  |  |  |  |  | 1.56 µg/mL | 1.56 µg/mL | 6.25 µg/mL |  |  |  |  |  |  |  |  | 
